29 compounds from patent publication US10005735B2, “Inhibitors of RPN11” (California Institute of Technology, priority 2015, dated 2018) can be followed below.

Each structure is given as a SMILES string.

Experiment [1] has as its target T1, Rpn11 (Homo sapiens (Human), UniProt O00487). As to the kind of experiment: Rpn11 activity assay (fluorescence polarization, Ub4-pepOG cleavage by 26S proteasome). The class given is biochemical. The note with it: for Rpn11 assay activity (in words): screening, compared with 8TQ. The text has this: Candidate compounds according to embodiments of the present invention were synthesized as described herein. […] In brief, this Rpn11 bioassay employs a fluorescent polarization readout based on the ability of the 26S proteasome to cleave the protein substrate including four tandem ubiquitin proteins fused to a peptide having a unique cysteine labeled with a fluorophore. Cleavage of this substrate by Rpn11 at the junction between the fourth ubiquitin and the peptide, releases the low molecular weight fluorescent peptide. Accordingly, inhibition of fluorescence correlates with inhibition of Rpn11. Inhibition is reported as the half maximal inhibitory concentration (IC50) for the candidate compound.
Rpn11 Activity Assay. […] In brief, in order to measure the Rpn11 activity, a synthetic peptide substrate, termed Ub4-pepOG, was engineered. […] Peptide substrate Ub4-pepOG consists of only 30 amino acids and therefore the decrease of polarization is mainly from deubiquitination but not the proteolysis of the peptide. Fluorescence polarization assay was performed in a low-volume 384 well solid black plate where the components are added in the follow sequence: 1) 5 μl compound in 3% DMSO or 3% DMSO control 2) 5 μl 26S proteasome (Enzo Life Sciences Inc, NY). […] Fluorescence polarization is measured using a PHERAstar (BMG labtech, Ortenberg, Germany) plate reader with excitation of 480 nm and emission of 520 nm filter set. […] Rpn11 activity was normalized to DMSO control and fitted using does-response curve.

Another experiment addresses Csn5 (Homo sapiens (Human), UniProt Q92905). As to the kind of experiment: Csn5 activity assay (fluorescence polarization, SCF^skp2-Nedd8OG, COP9 Signalosome Complex). The class given is biochemical. The note with it: Table 2. On the procedure:
Csn5 Activity Assay. […] In brief, a fluorescent substrate termed SCF^skp2-Nedd8OG was produced to measure CSN5 activity in vitro. This assay measures the decrease in fluorescence polarization due to the decrease in apparent molecular weight of Oregon Green (OG) fluorophore (from the ˜175 kDa substrate to ˜9 kDa Nedd8OG) as a result of Csn5-mediated cleavage of the isopeptide bond that links Nedd8OG to SCF^Skp2. The assay was performed in a low-volume 384 well solid black plate comprising equal volumes of compound, substrate (SCF^skp2-Need8OG) and enzyme (purified COP9 Signalosome Complex, CSN). Fluorescence polarization was recorded using the same setting as for the Rpn11 activity assay.

Another experiment deals with AMSH (Homo sapiens (Human), UniProt O95630). The experiment can be described thus: AMSH activity assay (DiUb^K63TAMRA cleavage, fluorescence). The class given is biochemical. The settings on record: Table 2. The text has this:
AMSH Activity Assay. AMSH is known to selectively cleave ubiquitin chains in which the ubiquitins are joined via K63 of the proximal ubiquitin linked by an isopeptide bond to the carboxy terminus of the distal ubiquitin. […] In brief, DiUb^K63TAMRA was labeled with quench pairs TAMRA/QXL.

The target of experiment [2] is T1, Rpn11. As to the kind of experiment: Rpn11 activity assay (fluorescence polarization, Ub4-pepOG cleavage by 26S proteasome). The class given is biochemical. The note with it: does not inhibit Csn5 or AMSH with the same potency as Rpn11.
A further experiment relates to Ub^G76V-GFP. The experiment can be described thus: Reporter degradation assay in Hela cells expressing Ub^G76V-GFP. The class given is cell-based. The note with it: Homo sapiens, after MG132 removal, cycloheximide chase. As for the experimental part: Characterization of the Compound Activity in Cells. […] After 4 hours, MG132 was removed and a cycloheximide (CHX) chase was initiated +/− different concentrations of test compound and the rate of reporter degradation was evaluated by monitoring GFP fluorescence by high throughput microscopy. The rate of fluorescence decrease was normalized to DMSO control and analyzed using does-response equation.

The mark [3] stands for this setting: Table 2, 1 mM DTT in assay reduces disulfides to monomeric active species.
The mark [4] stands for this setting: Table 1, metal binding pharmacophore fragments.

T1 sequence (O00487 whole entry, looked up, the tested form may be a part): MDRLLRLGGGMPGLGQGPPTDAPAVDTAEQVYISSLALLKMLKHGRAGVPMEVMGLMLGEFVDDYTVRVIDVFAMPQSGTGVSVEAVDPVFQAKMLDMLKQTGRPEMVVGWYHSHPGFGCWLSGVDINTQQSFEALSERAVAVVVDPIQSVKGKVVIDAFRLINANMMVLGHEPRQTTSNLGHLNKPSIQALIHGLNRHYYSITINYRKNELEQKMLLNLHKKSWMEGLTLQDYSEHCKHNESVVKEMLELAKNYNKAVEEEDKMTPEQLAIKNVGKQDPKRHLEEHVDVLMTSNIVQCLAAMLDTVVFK
AMSH, sequence (O95630 whole entry): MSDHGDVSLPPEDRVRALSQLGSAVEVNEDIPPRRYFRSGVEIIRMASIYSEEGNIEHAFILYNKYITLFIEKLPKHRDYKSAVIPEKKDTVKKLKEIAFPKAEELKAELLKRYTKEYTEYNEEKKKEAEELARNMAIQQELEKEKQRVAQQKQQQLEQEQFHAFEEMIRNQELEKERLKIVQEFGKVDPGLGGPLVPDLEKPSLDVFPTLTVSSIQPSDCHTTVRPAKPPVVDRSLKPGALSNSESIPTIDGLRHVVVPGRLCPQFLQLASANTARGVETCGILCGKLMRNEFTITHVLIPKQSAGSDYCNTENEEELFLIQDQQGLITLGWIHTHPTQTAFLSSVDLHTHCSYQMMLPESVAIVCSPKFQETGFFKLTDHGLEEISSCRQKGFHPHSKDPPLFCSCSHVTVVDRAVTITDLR

As for `O=C(NCc1cccs1)c1ccc2cccc(SSc3cccc4ccc(C(=O)NCc5cccs5)nc34)c2n1` [8,8′-Disulfanediylbis(N-(thiophen-2-ylmethyl)quinoline-2-carboxamide)], on Rpn11 [1], the “Rpn11 assay activity (in words)” value is “less active than 8TQ”.

As to `O=C(NCc1ccccc1)c1ccc2cccc(SSc3cccc4ccc(C(=O)NCc5ccccc5)nc34)c2n1` [8,8′-Disulfanediylbis(N-benzylquinoline-2-carboxamide)], the “Rpn11 assay activity (in words)” value on Rpn11 [1] is reported as “less active than 8TQ”.

`CNC(=O)c1cnc2c(SSc3cccc4cc(C(=O)NC)cnc34)cccc2c1` [Compound 2, 8,8′-Disulfanediylbis(N-methylquinoline-3-carboxamide)]: the IC50 is 68 µM on Csn5 and 4.8 µM against AMSH.

`O=C(Nc1nccs1)c1cnc2c(SSc3cccc4cc(C(=O)Nc5nccs5)cnc34)cccc2c1` [Compound 5, 8,8′-Disulfanediylbis(N-(thiazol-2-yl)quinoline-3-carboxamide)]: the IC50 against Csn5 amounted to 32 µM; at AMSH, 3.3 µM. In addition, at Rpn11 [2], the “specificity for Rpn11 versus Csn5 and/or AMSH (in words)” value is reported as “specific inhibitors of Rpn11”.

For `O=C(NCC1CCCO1)c1cnc2c(SSc3cccc4cc(C(=O)NCC5CCCO5)cnc34)cccc2c1` (stereo not drawn) [Compound 6, 8,8′-Disulfanediylbis(N-((tetrahydrofuran-2-yl)methyl)quinoline-3-carboxamide)], the IC50 at Csn5 is 41.3 µM; against Rpn11 [1] (setting [3]), 4.6 µM; at AMSH, 6.8 µM.

For `O=C(NCc1ccco1)c1cnc2c(SSc3cccc4cc(C(=O)NCc5ccco5)cnc34)cccc2c1` [Compound 7, 8,8′-Disulfanediylbis(N-(furan-2-ylmethyl)quinoline-3-carboxamide)], the IC50 came out at 0.2 µM against Csn5, 0.9 µM against Rpn11 [1] (setting [3]) and 0.9 µM on AMSH.

On to `O=C(NCc1cccs1)c1cnc2c(SSc3cccc4cc(C(=O)NCc5cccs5)cnc34)cccc2c1` [Compound 8, 8,8′-Disulfanediylbis(N-(thiophen-2-ylmethyl)quinoline-3-carboxamide)], for which the IC50 was determined as 16 µM on Csn5, 0.8 µM at Rpn11 [1] (setting [3]) and 1.3 µM at AMSH.

`Sc1cccc2cccnc12` [Compound 8TQ, 8-thioquinoline, reference compound] displayed an IC50 on Rpn11 [1] (setting [4]) of 2.8 ± 0.35 µM. In addition, the “Rpn11 assay activity (in words)” value on Rpn11 [1] is reported as “highly potent fragment”.

Turning to `Sc1ccnc2cccnc12` [Compound 8e, 1,5-Naphthyridine-4-thiol], the IC50 on Rpn11 [1] (setting [4]) is 15 µM.

For the compound `O=C(NCc1nccs1)c1cnc2c(SSc3cccc4cc(C(=O)NCc5nccs5)cnc34)cccc2c1` [Compound 9, 8,8′-Disulfanediylbis(N-(thiazol-2-ylmethyl)quinoline-3-carboxamide)], the IC50 worked out at 23 µM against Csn5 and 7.8 µM against AMSH. Also, on Rpn11 [2], the “specificity for Rpn11 versus Csn5 and/or AMSH (in words)” value is listed as “specific inhibitors of Rpn11”.

For `Cc1ccc2cccc(S)c2n1` [Compound 9c, 2-Methylquinoline-8-thiol], the “Rpn11 assay activity (in words)” value on Rpn11 [1] was “less active than 8TQ”.

For the compound `O=C(NCCc1ccco1)c1cnc2c(SSc3cccc4cc(C(=O)NCCc5ccco5)cnc34)cccc2c1` [Compound 10, 8,8′-Disulfanediylbis(N-(2-(furan-2-yl)ethyl)quinoline-3-carboxamide)], the IC50 at Csn5 stood at 6.9 µM; with Ub^G76V-GFP, 1.4 µM; against AMSH, 1.7 µM.

Consider `O=C(NCCc1cccs1)c1cnc2c(SSc3cccc4cc(C(=O)NCCc5cccs5)cnc34)cccc2c1` [Compound 11, 8,8′-Disulfanediylbis(N-(2-(thiophen-2-yl)ethyl)quinoline-3-carboxamide)], for which the figures for the IC50 against Csn5, against Rpn11 [1] (setting [3]) and on AMSH were 4 µM, 0.3 µM and 1.3 µM, respectively. Besides, the “specificity for Rpn11 versus Csn5 and/or AMSH (in words)” value at Rpn11 [2] was “specific inhibitors of Rpn11”.

In the case of `O=C(NCCc1nccs1)c1cnc2c(SSc3cccc4cc(C(=O)NCCc5nccs5)cnc34)cccc2c1` [Compound 12, 8,8′-Disulfanediylbis(N-(2-(thiazol-2-yl)ethyl)quinoline-3-carboxamide)], the IC50 on Csn5 is 30 µM; in the experiment on Ub^G76V-GFP, 0.57 µM. The “specificity for Rpn11 versus Csn5 and/or AMSH (in words)” value at Rpn11 [2] is recorded as “specific inhibitors of Rpn11”.

`O=C(NCc1ccccn1)c1cnc2c(SSc3cccc4cc(C(=O)NCc5ccccn5)cnc34)cccc2c1` [Compound 13, 8,8′-Disulfanediylbis(N-(pyridin-2-ylmethyl)quinoline-3-carboxamide)]: the IC50 at Csn5 was 56.7 µM; in the experiment on Ub^G76V-GFP it was greater than 10 µM; against Rpn11 [1] (setting [3]), 3.9 µM; at AMSH it was 16.7 µM.

Take `O=C(NCc1cccnc1)c1cnc2c(SSc3cccc4cc(C(=O)NCc5cccnc5)cnc34)cccc2c1` [Compound 14, 8,8′-Disulfanediylbis(N-(pyridin-3-ylmethyl)quinoline-3-carboxamide)]: the IC50 against Csn5 was 128 µM; in the experiment on Ub^G76V-GFP it was greater than 10 µM; against Rpn11 [1] (setting [3]) it was 3.1 µM; against AMSH, 3.52 µM.

`O=C(O)c1ccc2cccc(SSc3cccc4ccc(C(=O)O)nc34)c2n1` [Compound 14b, 8,8′-Disulfanediylbis(quinoline-2-carboxylic acid)]: the “Rpn11 assay activity (in words)” value at Rpn11 [1] is reported as “less active than 8TQ”.

As to `O=C(NCc1ccccc1)c1cnc2c(SSc3cccc4cc(C(=O)NCc5ccccc5)cnc34)cccc2c1` [Compound 16, 8,8′-Disulfanediylbis(N-benzylquinoline-3-carboxamide)], the IC50 against Csn5 was 11 µM; in the experiment with Ub^G76V-GFP it was greater than 10 µM; against Rpn11 [1] (setting [3]), 1.1 µM; on AMSH it was 15 µM.

`O=C(NCc1ccc2c(c1)OCO2)c1cnc2c(SSc3cccc4cc(C(=O)NCc5ccc6c(c5)OCO6)cnc34)cccc2c1` [Compound 20, 8,8′-Disulfanediylbis(N-(benzo[d][1,3]dioxol-5-ylmethyl)quinoline-3-carboxamide)]: the values for the IC50 on Csn5, in the experiment with Ub^G76V-GFP and at Rpn11 [1] (setting [3]) were 7 µM, greater than 10 µM and 0.9 µM, respectively.

Consider `O=C(NCc1ccc(N2CCOCC2)cc1)c1cnc2c(SSc3cccc4cc(C(=O)NCc5ccc(N6CCOCC6)cc5)cnc34)cccc2c1` [Compound 21, 8,8′-Disulfanediylbis(N-(4-morpholinobenzyl)quinoline-3-carboxamide)], for which the IC50 with Ub^G76V-GFP was greater than 10 µM; against Rpn11 [1] (setting [3]), 0.8 µM.

On to `O=C(NCCN1CCOCC1)c1cnc2c(SSc3cccc4cc(C(=O)NCCN5CCOCC5)cnc34)cccc2c1` [Compound 22, 8,8′-Disulfanediylbis(N-(2-morpholinoethyl)quinoline-3-carboxamide)], for which the IC50 is 99 µM against Csn5, greater than 10 µM in the experiment on Ub^G76V-GFP, 6.4 µM against Rpn11 [1] (setting [3]) and 25.4 µM on AMSH.

Consider `O=C(CCCC[C@@H]1SC[C@@H]2NC(=O)N[C@@H]21)NCCOCCOCCOCCNC(=O)c1cnc2c(S)cccc2c1` [Compound 32], for which the IC50 at Csn5 was 13.8 µM; in the experiment on Ub^G76V-GFP, 4.1 µM; at Rpn11 [1] (setting [3]) it was 0.4 µM; against AMSH, 0.4 µM.

As to `COC(=O)c1ccc2cccc(SSc3cccc4ccc(C(=O)OC)nc34)c2n1` [Dimethyl 8,8′-disulfanediylbis(quinoline-2-carboxylate)], the “Rpn11 assay activity (in words)” value at Rpn11 [1] is “less active than 8TQ”.

Compound `Nc1cccc2cccnc12` [reference compound] yielded an IC50 at Rpn11 [1] (setting [4]) greater than 100 µM.

The compound `Sc1cccc2ccccc12` [reference compound] came in with an IC50 at Rpn11 [1] (setting [4]) greater than 100 µM.

For `CSc1cccc2cccnc12` [reference compound], on Rpn11 [1] (setting [4]), the IC50 is greater than 100 µM.

With `Cc1cccc2cccnc12` [reference compound], the IC50 at Rpn11 [1] (setting [4]) is greater than 100 µM.

The compound `Sc1cccc2ncccc12` [reference compound] came in with an IC50 at Rpn11 [1] (setting [4]) greater than 100 µM.

`Oc1cccc2cccnc12` [reference compound] showed an IC50 on Rpn11 [1] (setting [4]) greater than 100 µM.
